Results: patent publication US6902881B2, “Compounds and methods for regulating cell differentiation” (priority 2000, dated 2005)

Assays:
[1] = test system: retinoid signaling system (RAR or RXR); assay: Use of the retinoid signaling system
liposarcoma (LS) cells = assay: Proliferation of liposarcoma cells; assay type: cell-based, human
[2] = biological target: T1, peroxisome proliferator-activated receptor (PPARγ) system (Homo sapiens, UniProt P37231); assay: Use of the peroxisome proliferator-activated receptor system
T1 sequence (P37231 1-505): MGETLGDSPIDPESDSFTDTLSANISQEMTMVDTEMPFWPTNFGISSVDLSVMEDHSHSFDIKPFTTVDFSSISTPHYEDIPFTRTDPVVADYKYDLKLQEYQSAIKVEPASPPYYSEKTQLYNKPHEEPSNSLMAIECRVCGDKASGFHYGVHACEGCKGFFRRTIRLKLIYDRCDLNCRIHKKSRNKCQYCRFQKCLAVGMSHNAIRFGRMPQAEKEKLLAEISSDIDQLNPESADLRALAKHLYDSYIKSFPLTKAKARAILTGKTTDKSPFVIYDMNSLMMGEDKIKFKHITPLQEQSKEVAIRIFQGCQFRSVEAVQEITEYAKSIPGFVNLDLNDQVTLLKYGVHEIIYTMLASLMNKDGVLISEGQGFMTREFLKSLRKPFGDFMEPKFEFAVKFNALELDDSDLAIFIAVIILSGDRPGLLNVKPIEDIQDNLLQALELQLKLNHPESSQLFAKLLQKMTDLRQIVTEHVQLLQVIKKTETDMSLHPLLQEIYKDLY

[3] = test system: CEA content of HT 29 colon cancer cells; assay: CEA production by HT 29 cells (ELISA/IMx); assay type: cell-based, human
Method: Expression of differentiation markers. Carcinoembryogenic antigen in cell supernatants collected each three days was assayed by standard ELISA determinations using an IMX assay for quantitative measurement of the antigen. Cellular triacyl glycerol content was measured spectrophotometrically by enzymatic hydrolysis and analysis of the amount of glycerol released using a standard assay, Triglyceride (INT) 10 (Sigma Diagnostics). Cellular alkaline phosphatase activity was determined by measuring the fluorescence change induced by the hydrolysis of 4-methylumbelliferylphosphate. The fluorescence is detected at 450 nm with an excitation of 365 nm, using a Jobin Ivon-Spex Fluoro Max-2 fluorimeter. The alkaline phosphatase activity detected was expressed in units of μmol/mg protein/min.
The effects of biliverdine on cell proliferation and production of two differentiation markers, CEA and alkaline phosphatase activity, were analyzed, CEA was assayed by standard ELISA determinations while alkaline phosphatase activity was determined by measuring the fluorescence change induced by the hydrolysis of phosphate from 4-methylumbelliferylphosphate as follows. To measure CEA production, cell supernatants were collected at the first cycle of change of media (third day) and on day 12. […] This was diluted 1:1 and assayed for CEA using an Imx assay for quantitive measurement of the antigen. […]

[4] = test system: Normal Fibroblast (3T3-L1 fibroblasts); assay: Cellular triacyl glycerol (TAG) content, normal fibroblast; assay type: cell-based; settings: 3T3-L1 fibroblasts with insulin
Method: Expression of differentiation markers. Carcinoembryogenic antigen in cell supernatants collected each three days was assayed by standard ELISA determinations using an IMX assay for quantitative measurement of the antigen. Cellular triacyl glycerol content was measured spectrophotometrically by enzymatic hydrolysis and analysis of the amount of glycerol released using a standard assay, Triglyceride (INT) 10 (Sigma Diagnostics). […] The fluorescence is detected at 450 nm with an excitation of 365 nm, using a Jobin Ivon-Spex Fluoro Max-2 fluorimeter. The alkaline phosphatase activity detected was expressed in units of μmol/mg protein/min. These compounds also affect the timing for the fat accumulation. After 9 days of incubation with insulin and bovine pituitary extract, but without biliverdin, the fat droplets in the cells are small and scattered diffusely throughout the cell. These globules continue to enlarge to fill most of the cytoplasmic space by day 14. In contrast, by day 7 the cells incubated in the presence of biliverdin already contain large, grouped and prominent droplets. While the triacyl glycerol content increases in both HT 29 and liposarcoma cells, the fat droplets in HT 29 cells are smaller than those that fill the cytoplasm of the liposarcoma cells. 3T3-L1 fibroblasts differentiate into adipocytes in the presence of insulin (Table VII). In the absence of biliverdin, this hormone increases the triacylglycerol content of 3T3-L1 fibroblasts by 3-fold relative to control. When biliverdin is added, a progressively greater content of triacyl glycerol is achieved at day 9. The increase is dependent on the biliverdin concentration. At the highest concentration used, 4×10^−7 M, there is a 5.8-fold increase of triacyl glycerol content over that of the undifferentiated fibroblasts (Table VII). This almost doubles the amount in the cells incubated with differentiation medium alone and is nearly as high as observed with troglitazone. At a lower biliverdin concentration, 10^−8 M, there is a 3.5-fold increase compared to control values. Remarkably, the amounts of biliverdin required to achieve the effects on proliferation, cell cycle and differentiation marker up-regulation, i.e. 10^−7-10^−06 M, are the same as those needed to re-establish the capacity of embryos depleted of the tetrapyrrole by treatment with UV-light to form a dorsal axis.

**Q.** For `C=CC1=C(C)/C(=C/C2=NC(=C\c3[nH]c(/C=C4\NC(=O)C(C)=C4C=C)c(C)c3CCC(=O)O)/C(CCC(=O)O)=C2C)NC1=O` [Biliverdin, biliverdin IXα], which “use of the retinoid signaling system (RAR or RXR)” value [1] is on record?
**A.** does not use

**Q.** And the “day after which division resumes at markedly reduced rate” value (liposarcoma (LS) cells)?
**A.** > 3 days

**Q.** What about the “division slower than control” value (liposarcoma (LS) cells) of the same molecule?
**A.** 3.3 times

**Q.** And the “time until proliferation ceases” value (liposarcoma (LS) cells)?
**A.** within one day

**Q.** And the “use of the PPARγ system” value [2]?
**A.** does not use

**Q.** What about the “CEA secreted into the medium” value ([3]; HT 29, by days 9-12 of exposure, constitutive slightly below 3) of the same molecule?
**A.** over 80 ng/ml/10^6 cells

**Q.** What about the “overproduction of the differentiation marker CEA” value ([3]; HT 29, quiescent proliferative period days 3-40) of the same molecule?
**A.** > 25 fold

**Q.** And the “increase of triacyl glycerol content over undifferentiated fibroblasts” value ([4]; biliverdin 4×10^−7 M, day 9)?
**A.** 5.8 fold

**Q.** What about the “increase of triacyl glycerol content compared to control values” ([4]; biliverdin 10^−8 M) of the same molecule?
**A.** 3.5 fold
